Values after ≈ are worked out from the molar mass of the structure shown. Values joined by “and” are separate entries in the source; they are usually repeats but may differ in a detail not shown here. Equal entries are not always repeated. Where two headings read alike, the source gives them in different places.
Columns and labels:
[1] = tested on: M. tuberculosis H37Rv; assay type: cell-based
[2] = tested on: FQ-R1 (fluoroquinolone-resistant strain derived from H37Rv, gyrA mutant D94N); assay type: cell-based, M. tuberculosis
[3] = tested on: RIF-R1 (derived from H37Rv, rpoB mutant S522L); assay type: cell-based, M. tuberculosis
[4] = tested on: INH-R1 (derived from H37Rv, katG mutant Y155*); assay type: cell-based, M. tuberculosis

In the case of `COc1nc2ccc(Br)cc2cc1[C@@H](c1ccccc1)[C@@](O)(CCN(C)C)c1cccc2ccccc12` [BDQ, bedaquiline, reference compound], the Frequencies of resistance [1] is reported as 5.5 × 10^−9 and 3.4 × 10^−7.
For `CCCN1CC2C(CC[C@@]3(C)C2CC[C@@H]3C(=O)Nc2cc(C(C)(C)C)ccc2C(C)(C)C)[C@@]2(C)CCC(=O)C=C12` (some centres unmarked) [Compound 114], the Frequencies of resistance ([1]; 114 5 × MIC with BDQ 5 × MIC) was 2 × 10^−7, the Frequencies of resistance ([1]; 114 5 × MIC, BDQ none) was 3.6 × 10^−6 and the Frequencies of resistance ([1]; 114 10 × MIC with BDQ 10 × MIC) was 7.8 × 10^−8. The Frequencies of resistance ([1]; 114 10 × MIC, BDQ none) was 1.1 × 10^−7.
With `NNC(=O)c1ccncc1` [INH, isoniazid] the “MIC FQ-R1” value [2] was 0.29 µM (≈ 0.0398 µg/mL), the “MIC RIF-R1” value [3] was 0.20 µM (≈ 0.0274 µg/mL) and the “MIC INH-R1” value [4] was greater than 200 µM.

— patent US11072633B2 (priority 2016, dated 2021)
